Here are results for ten molecules from ChEMBL document CHEMBL1201862, “PubChem BioAssay data set” (2004).

For orientation: GI50 means the concentration at which growth is held to half of that of the control.

Among the test systems are NCI/ADR-RES; U-251; NCI-H23; SNB-75; CCRF-CEM; IGROV-1; SF-268; MOLT-4; MDA-MB-231; COLO 205; SK-OV-3; OVCAR-4; RXF 393; HOP-62; A549; NCI-H522; HCT-116; DU-145; KM12; CAKI-1.
Holding throughout (assay): DTP human tumour cell line panel, 48 h

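Where inhibition never reached the appropriate level, the endpoint shown equals the highest concentration tested. Otherwise, values were interpolated linearly from a five-concentration, 48-hour dose response in 96-well plates. The concentration for 50% growth inhibition is given as GI50.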 Calls of active or inactive are those of the source. Rule as the data show it: active = GI50 up to about 1.1 µM and inactive = higher. Bounds are passed on as bounds.

Turning to `COc1cc(C)cc2c1C(=O)C(NC(C)=O)=CC2=O`, the GI50 with NCI/ADR-RES is > 100 µM (inactive); in the assay with U-251, > 100 µM (inactive); with NCI-H23, > 100 µM (inactive); in the assay with SNB-75 it was 45.7 µM (inactive); with CCRF-CEM it was 34.3 µM (inactive); in the assay with IGROV-1, > 100 µM (inactive). The GI50 is > 100 µM (inactive) with SF-268; 28.2 µM (inactive) in the assay on MOLT-4; 98.4 µM (inactive) in the assay with MDA-MB-231; > 100 µM (inactive) with COLO 205; > 100 µM (inactive) with SK-OV-3; 24.6 µM (inactive) in the assay on OVCAR-4. The GI50 in the assay with RXF 393, in the assay on HOP-62, in the assay with A549, with NCI-H522, with HCT-116 and with DU-145 was > 100 µM (inactive) throughout. In addition, the GI50 in the assay on KM12 and in the assay on CAKI-1 was > 100 µM (inactive) each time.

For `CN1CC=C(c2cccn2C)CC1`, the GI50 with NCI/ADR-RES, with U-251, in the assay with NCI-H23, in the assay on SNB-75, in the assay on CCRF-CEM and in the assay on IGROV-1 was > 100 µM (inactive) in each case. For the same molecule, the GI50 with SF-268, with MOLT-4, with MDA-MB-231, in the assay with COLO 205, in the assay with SK-OV-3 and in the assay with OVCAR-4 was > 100 µM (inactive) in each case. The GI50 in the assay with RXF 393, in the assay with HOP-62, in the assay with A549, with NCI-H522, in the assay on HCT-116 and in the assay on DU-145 was > 100 µM (inactive) in each case. For the same molecule, the GI50 with KM12 and in the assay on CAKI-1 was > 100 µM (inactive) each time.

`COc1cc2cc(C(=O)N3CC(CCl)c4c3cc(N(C)C)c3ccccc43)[nH]c2c(OC)c1OC` (stereo not given): the GI50 in the assay with NCI/ADR-RES is < 0.01 µM (active); with U-251, < 0.01 µM (active); in the assay on NCI-H23 it was < 0.01 µM (active); in the assay on SNB-75 it was < 0.01 µM (active); in the assay with CCRF-CEM, < 0.01 µM (active); in the assay with IGROV-1, 0.0111 µM (active). Further, the 50% growth inhibitory concentration (GI50) with SF-268 is < 0.01 µM (active); in the assay on MOLT-4 it was < 0.01 µM (active); with MDA-MB-231, 0.0378 µM (active); in the assay with COLO 205, 0.012 µM (active); with SK-OV-3, 0.0137 µM (active); in the assay with OVCAR-4 it was 0.0163 µM (active). In addition, the GI50 in the assay with RXF 393 was 0.0137 µM (active); in the assay with HOP-62, < 0.01 µM (active); with A549, < 0.01 µM (active); with NCI-H522 it was < 0.01 µM (active); in the assay on HCT-116 it was < 0.01 µM (active); with DU-145 it was < 0.01 µM (active). The values for the GI50 in the assay on KM12 and in the assay on CAKI-1 were 0.0117 µM (active) and < 0.01 µM (active), respectively.

As for `O=C1C(Cl)=C(N2CCC[C@H]2CO)C(=O)c2c(O)ccc(O)c21`, the GI50 in the assay with NCI/ADR-RES is 2 µM (inactive); in the assay on U-251 it was > 10 µM (inactive); in the assay with NCI-H23, 2.29 µM (inactive); in the assay with SNB-75, > 10 µM (inactive); in the assay on CCRF-CEM it was 0.22 µM (active); in the assay with IGROV-1, 4.95 µM (inactive). Also, the GI50 in the assay on SF-268 is 3.74 µM (inactive); in the assay with MOLT-4, 0.337 µM (active); in the assay on MDA-MB-231, 2.64 µM (inactive); with COLO 205, 1.77 µM (inactive); in the assay with SK-OV-3 it was > 10 µM (inactive); in the assay on OVCAR-4, 2.16 µM (inactive). The GI50 was 1.99 µM (inactive) in the assay on RXF 393; > 10 µM (inactive) in the assay with HOP-62; 8.2 µM (inactive) in the assay on A549; 0.104 µM (active) in the assay with NCI-H522; 1.64 µM (inactive) in the assay with HCT-116; 4.38 µM (inactive) in the assay with DU-145. In addition, the results for the GI50 with KM12 and in the assay with CAKI-1 were 4.34 µM (inactive) and 1.66 µM (inactive), respectively.

As for `O=c1ccn(CC2(CO)CC(Cc3ccccc3)C2)c(=O)[nH]1` (stereo not given), the GI50 in the assay with NCI/ADR-RES, with U-251, in the assay on NCI-H23, in the assay with SNB-75, in the assay with CCRF-CEM and with IGROV-1 was > 100 µM (inactive) each time. Further, the GI50 in the assay on SF-268, with MOLT-4, in the assay on MDA-MB-231, in the assay on COLO 205, in the assay on SK-OV-3 and in the assay with OVCAR-4 was > 100 µM (inactive) in each case. In addition, the GI50 in the assay on RXF 393, in the assay with HOP-62, in the assay on A549, in the assay with NCI-H522, in the assay with HCT-116 and with DU-145 was > 100 µM (inactive) throughout. Besides, the GI50 in the assay with KM12 and in the assay on CAKI-1 was > 100 µM (inactive) throughout.

`Cc1ccc2c(O)cc(-c3cc(C)sc3C)nc2n1`: the GI50 is 1.62 µM (inactive) with NCI/ADR-RES; 3.69 µM (inactive) in the assay with U-251; 2.25 µM (inactive) with NCI-H23; 2.9 µM (inactive) in the assay on SNB-75; 2.53 µM (inactive) in the assay on CCRF-CEM; 3.36 µM (inactive) with IGROV-1. Further, the GI50 is 6.04 µM (inactive) in the assay with SF-268; 4.14 µM (inactive) in the assay with MOLT-4; 10.4 µM (inactive) in the assay with MDA-MB-231; 2.26 µM (inactive) in the assay on COLO 205; 3.77 µM (inactive) with SK-OV-3; > 36.6 µM (inactive) in the assay on OVCAR-4. Further, the GI50 is 2.81 µM (inactive) with RXF 393; 6.07 µM (inactive) in the assay on HOP-62; 3.94 µM (inactive) in the assay on A549; 2.07 µM (inactive) with NCI-H522; 3.84 µM (inactive) with HCT-116; 3.99 µM (inactive) in the assay with DU-145. For the same molecule, the figures for the GI50 in the assay on KM12 and in the assay with CAKI-1 were 3.3 µM (inactive) and 14.4 µM (inactive), respectively.

`Oc1ccccc1-c1nn2c(CCCCCCCCc3nnc4sc(-c5ccccc5O)nn34)nnc2s1`: the GI50 is 12 µM (inactive) in the assay on NCI/ADR-RES; 12.9 µM (inactive) in the assay on U-251; 18.8 µM (inactive) in the assay on NCI-H23; 5.94 µM (inactive) in the assay on SNB-75; 5.42 µM (inactive) with CCRF-CEM; 4.66 µM (inactive) with IGROV-1. In addition, the GI50 in the assay with SF-268 was 19 µM (inactive); in the assay on MOLT-4 it was 8.39 µM (inactive); in the assay on MDA-MB-231, 17.3 µM (inactive); in the assay on COLO 205 it was 37.2 µM (inactive); in the assay with SK-OV-3 it was 15.2 µM (inactive); in the assay on OVCAR-4, 14.1 µM (inactive). For the same molecule, the GI50 was 10.2 µM (inactive) in the assay on RXF 393; 8.71 µM (inactive) with HOP-62; 6 µM (inactive) in the assay on A549; 13.9 µM (inactive) in the assay with NCI-H522; 10.5 µM (inactive) in the assay with HCT-116; 18 µM (inactive) in the assay with DU-145. Further, the GI50 with KM12 is 21 µM (inactive); in the assay with CAKI-1, 5.11 µM (inactive).

For the molecule `C=C1OC(=O)[C@]2([C@@H](/C=C/C)C=CC(=O)[C@H]2O)[C@@H]1O`, the GI50 in the assay on NCI/ADR-RES, in the assay with U-251, with NCI-H23, in the assay on SNB-75, with CCRF-CEM and in the assay with IGROV-1 was > 100 µM (inactive) in each case. Also, the GI50 with SF-268, in the assay with MOLT-4, in the assay with MDA-MB-231, in the assay on COLO 205, in the assay on SK-OV-3 and in the assay with OVCAR-4 was > 100 µM (inactive) each time. Also, the GI50 in the assay on RXF 393, in the assay with HOP-62, in the assay on A549, with NCI-H522, in the assay on HCT-116 and with DU-145 was > 100 µM (inactive) in each case. Further, the GI50 in the assay on KM12 and in the assay on CAKI-1 was > 100 µM (inactive) each time.

With `[N-]=[N+]=Nc1c(C=O)c(=O)n2c3c(cccc13)CCC2`, the GI50 in the assay on NCI/ADR-RES is 7.76 µM (inactive); in the assay on U-251, 13.6 µM (inactive); in the assay with NCI-H23 it was 4.26 µM (inactive); with SNB-75, 14.2 µM (inactive); with CCRF-CEM it was 0.778 µM (active); with IGROV-1 it was 11.9 µM (inactive). The GI50 in the assay on SF-268 was 14.4 µM (inactive); in the assay on MOLT-4, 1.24 µM (inactive); in the assay on MDA-MB-231, 11.3 µM (inactive); in the assay on COLO 205, 2.3 µM (inactive); with SK-OV-3, 19 µM (inactive); in the assay on OVCAR-4 it was 2.24 µM (inactive). Moreover, the GI50 with RXF 393 is 1.76 µM (inactive); in the assay on HOP-62, 18 µM (inactive); in the assay on A549 it was 20.8 µM (inactive); with NCI-H522, 2.13 µM (inactive); in the assay on HCT-116, 3.15 µM (inactive); in the assay on DU-145, 5.15 µM (inactive). Also, the figures for the GI50 in the assay on KM12 and in the assay on CAKI-1 were 17.5 µM (inactive) and 2.94 µM (inactive), respectively.

As for `CCCCOP(C)(=O)C(NC(=O)OCC)(C(F)(F)F)C(F)(F)F` (stereo not given), the GI50 with NCI/ADR-RES, with U-251, with NCI-H23, in the assay on SNB-75, with CCRF-CEM and in the assay on IGROV-1 was > 100 µM (inactive) throughout. Besides, the GI50 in the assay with SF-268, in the assay with MOLT-4, in the assay with MDA-MB-231, in the assay on COLO 205, in the assay on SK-OV-3 and in the assay with OVCAR-4 was > 100 µM (inactive) in each case. For the same molecule, the GI50 in the assay on RXF 393 is > 100 µM (inactive); in the assay with HOP-62 it was > 100 µM (inactive); in the assay on A549, > 100 µM (inactive); with NCI-H522, 65.8 µM (inactive); in the assay on HCT-116, > 100 µM (inactive); with DU-145, > 100 µM (inactive). Moreover, the GI50 with KM12 and in the assay with CAKI-1 was > 100 µM (inactive) throughout.
